# Data published in patent publication US8614254B2, “Methods and compositions for treating thalamocortical dysrhythmia” (New York University, priority 2007, dated 2013).
# Legend:
# [1] = test system: low threshold activated Cav3 calcium currents (Cav3.1); assay: Whole-cell voltage-clamp patch recording of low threshold activated calcium currents in ventrobasal thalamic neurons of brain slices; assay type: cell-based, rodents (Long-Evans rats, Harley guinea pigs); conditions: for Cav3 peak currents (I-V curve): FIG. 2B
# [2] = test system: high voltage activated calcium currents; assay: Whole-cell voltage-clamp patch recording, slow component when low and high voltage activated calcium currents are open; assay type: cell-based, rodents (Long-Evans rats, Harley guinea pigs); conditions: 10 μM; −10 mV, both low and high voltage activated calcium currents open; FIG. 1B
# [3] = test system: thalamic neurons (low threshold spikes, low frequency oscillations); assay type: cell-based
# [4] = test system: EEG frequency profile; assay: EEG recording with Fast Fourier transform frequency analysis in wild type and alpha-1A knockout mice; assay type: in vivo, mouse
# Protocol: Alpha1A knockout mice, which have an enhanced Cav3 calcium channel activity, develop progressive neurological symptoms resembling Thalamo-cortical Dysrhythmia characterized specifically by ataxia and dystonia, before dying, around four weeks after birth (Jun et al. (1999) Proc. Natl. Acad. Sci. USA. 96(26):15245-50).
# When a Fast Fourier transform analysis is performed in two segments of 1 second each (FIG. 7A, segments a and b) from the same wild type trace, a wide range of frequencies is observed. Importantly, the presence of high frequencies in the range of gamma band is observed (FIG. 7A, red arrows). In contrast, an alpha-1A knockout mouse presents a totally different EEG recoding.
# The administration of 1-octanol (Sinton et al., (1989) Pflügers Archiv 414: 31-36) in wild types versus knockout mice allows the quantification of the effects of such a drug in the high and low frequencies in the EEG. Since knockout mice only present low frequencies, a dose-response curve of 1-octanol can be easily prepared. Also, an augmentation in the ratio of high/low frequencies is expected for the wild types treated with 1-octanol.
# Analysis of the frequency components plotted in blue bars show a decrease in the low frequencies (0-15 Hz) and an increase in hi frequencies (30-45 Hz) consistent with the fact that Cav3 channels are responsible for low frequencies and their block produces an increase in high frequency.
# [5] = test system: thalamic neurons (low threshold spike); assay type: cell-based, mouse
# [6] = test system: thalamic neurons (high-frequency 40 Hz subthreshold oscillation); assay type: cell-based, mouse
# [7] = 50 μM, wild-type mouse, TTX 2 μM
# [8] = wild-type mice, i.p., 0.2 mg/kg, FIG. 7D
compound,measurement,setting,value
CCCCCCCCO [1-octanol],block of peak fast activated Cav3.1 calcium current (ICa) amplitude,"[1]; 10 μM, holding level −30 mV where only low voltage activated calcium currents can be open, FIG. 1A",about 30%
same,specificity of block of low threshold activated Cav3-type currents,"[1]; ventrobasal thalamic neurons, conclusion from FIG. 1A and 1B",specifically block
same,slow component that remains open at the end of the depolarized pulse,[2],leaving unchanged
same,peak of low threshold spikes activated using ramps of current,"[3]; 50 μM, FIG. 4A and 4B",further decreases
same,membrane resistance,"[3]; after blocking Cav3 calcium currents, same amplitude current pulse",increments
same,effect on the low threshold spikes,"[3]; current clamp, FIG. 4A and 4B",concentration-dependent
same,ratio of high/low frequencies in the EEG,"[4]; wild types treated, expected",augmentation
CCCCCCC(C)O (centres unmarked) [2-octanol],Cav3 peak currents (I-V curve),[1]; 10 μM,partially reduced
same,Cav3 peak currents (I-V curve),[1]; 100 μM,almost abolished
same,low threshold activated Cav3 calcium currents,"[1]; 100 μM, voltage clamp, high Cs/QX314 intracellular solution",completely abolished
same,Cav3 calcium currents peak with increasing concentrations,"[1]; holding −70 mV, steps to −60, −30, −20 and −10 mV, FIG. 2A",progressive reduction
same,thalamic low frequency oscillatory activity (low threshold spikes firing at 2 Hz),"[3]; 10 μM, five min. of perfusion, FIG. 3A",complete abolishment
same,reversibility of the abolishment of oscillatory activity,[3]; after 40 min. of washout,partially reversible
same,low threshold spike,"[3]; after TTX removal from the external solution, FIG. 5A and 5B",block
same,frequency of action potentials of the thalamic neurons,"[3]; after TTX removal, after block of low threshold spike, increment in input resistance",notably increased
CCCCCCCCO [octanol],low threshold activated Cav3 calcium currents of neurons of the thalamic Ventrobasal nucleus,"[1]; clinical concentrations at micromolar level, summary of the examples",significantly reversibly block
same,rebound low threshold spike,[5]; [7],abolished
same,low threshold spike,"[5]; alpha1A-KO mouse, TTX, FIG. 6B",blocked
same,40 Hz oscillations on depolarizing square pulses,[6]; [7],are observed
same,high-frequency 40 Hz oscillations,"[6]; alpha1A-KO mouse, before or after application",no high-frequency 40 Hz oscillations are present
same,high frequency oscillations in the thalamic neurons,[6]; summary of the examples,does not appear to affect
same,EEG hi frequencies (30-45 Hz),[4]; [8],increase
same,EEG low frequencies (0-15 Hz),[4]; [8],decrease
